From patent US10232013B2, “Use of an antimicrobial peptide TP4 in treating a cancer” (Academia Sinica, priority 2016, dated 2019) come the findings set out here.

In the data set the test system is MB453 (MDA-MB453) cells. In words: MTS cell viability assay, MB453. It is filed as cell-based, human. The conditions noted are these: mean±SD. The method, then: Cell-lines used in this study were purchased from the Bioresource Collection and Research Center (BCRC) in and the cells were cultured by the standard cell culture procedures and conditions provided by the BCRC. MB231 (BCRC 60425), MB453 (BCRC 60429), and HDF cells were cultured as previously described by Ting et al. MCF7 […] cells were maintained in α-MEM medium (ThermoFisher Scientific) supplemented with 2 mM L-glutamine, 10% FBS, 0.1 mM non-essential amino acids, 1 mM sodium pyruvate, and antibiotics (100 U mL^−1 penicillin G and […] streptomycin). M10 (BCRC 60197) cells were maintained in α-MEM medium (ThermoFisher Scientific) supplemented with 10% FBS and antibiotics. With the exception of MB231 and MB453, all cells were cultured at 37° C. with 5% CO2. For the cell viability and transfection assay, 1×10^4 cells [5×10^3 M10 cells were seeded and cultured for 48 h to allow the cells sufficient time for attachment] were seeded into the wells of a 96-well plate and cultured overnight. For the transfection assays, cells were transfected with 0.1-0.4 μg FOSB/FOSAB expression plasmid (Origene Technology Inc.) and cell viability was determined after 72 h. The transfection efficiencies (number of cells expressing eGFP/all cells) of the MB231 transfection assays were determined by observing ten randomly selected fields (from three independent transfections) of control GFP plasmid transfections under an inverted microscope (Olympus, IX71) coupled to a digital camera (Olympus DP80), using an […] (LCPlanFI 20×/0.40 Ph1). CellSens standard software (Olympus) was used for image acquisition. During the drug treatment assay, inhibitors (PD98059, BAPTA-AM, and AlP II) were added 30 min prior to TP4, and cell viability was determined at indicated time-points. Transfection was performed using LipofectAMINE™ 3000 (ThermoFisher Scientific), according to the manufacturer's recommendations. Knock-down cells were generated by transducing MB231 cells with pre-synthesized FOSB (or control) shRNA lentiviral particles (Santa Cruz Biotechnology), and selecting puromycin-resistant cells in accordance with the manufacturer's standard protocol. MB231 or M10 cells stably expressing eGFP or mOrange2 were generated through transfection with peGFP-puromycin or pmOrange2-C1 plasmid, followed by puromycin (5 μg mL^−1) or G418 (500 μg mL^−1) selection as described above.
Cell viability was quantitatively analyzed using the CellTiter-Glo® Luminescent Cell Viability Assay kit (ATP assay) and CellTiter 96® AQueous Non-Radioactive Cell Proliferation Assay kit (MTS assay) (Promega) in accordance with the manufacturer's protocol. For MTS assay, 1×10^4 cells were seeded into the wells of a 96-well plate and cultured overnight [5×10^3 M10 cells were seeded and cultured for 48 h to enable sufficient well attachment]. Cells were subsequently treated with different doses of TP4 (2.5-20 μg mL^−1) and harvested at the indicated time-points (3-24 h). Reaction mixtures (20 μL: MTS+PMS, using a ratio 20:1) were directly added to the cells, and the plates were incubated for 3 h at 37° C. Absorbance at 490 nm is directly proportional to the number of living cells in culture and was measured using a photometer (SpectraMax® i3, Molecular Devices). ATP assay was performed as previously described by Ting et al. Lactate dehydrogenase (LDH) assays were performed by quantitatively measuring cell lysis with a Cytotoxicity Detection Kit^PLUS (LDH) (Roche) in accordance with the manufacturer's protocol. The LDH standard was purchased from Cayman Chemical. Briefly, 1×10^4 cells were seeded into the wells of a 96-well plate and cultured overnight. Culture media were replaced with fresh medium containing 1% FBS and cells were subsequently treated with different doses of TP4 (2.5-20 μg mL^−1). Supernatants were harvested at 3 h. […]
On the technique in general: Tetrazolium dyes change colour on reduction, which living cells bring about.

Marks after values point to notes of the source that are not given here. Where no end group is shown, it is not given here.

Consider “FIHHIIGGLFSAGKAIHRLIRRRRR [TP4, tilapia piscidin 4]”, for which the “Cellular toxicity (cell viability), MTS assay” value (“Cellular toxicity” below) is on record as 93.75 ± 4.33^d (MB453, TP4 2.5 μg/mL, 3 h); 86.51 ± 4.19^d (MB453, TP4 2.5 μg/mL, 6 h); 92.21 ± 6.61^d (MB453, TP4 2.5 μg/mL, 12 h); 87.84 ± 4.75^d (MB453, TP4 2.5 μg/mL, 24 h); 91.50 ± 4.32^d (MB453, TP4 5.0 μg/mL, 3 h); 76.46 ± 6.25^d (MB453, TP4 5.0 μg/mL, 6 h). Besides, the “Cellular toxicity” value is 80.18 ± 5.41^d (MB453, TP4 5.0 μg/mL, 12 h); 87.00 ± 4.16^d (MB453, TP4 5.0 μg/mL, 24 h); 77.82 ± 4.33^d (MB453, TP4 10.0 μg/mL, 3 h); 58.58 ± 5.43^d (MB453, TP4 10.0 μg/mL, 6 h); 62.25 ± 10.74^d (MB453, TP4 10.0 μg/mL, 12 h); 77.24 ± 4.07^d (MB453, TP4 10.0 μg/mL, 24 h). The “Cellular toxicity” value by setting is: (MB453, TP4 15.0 μg/mL, 3 h) 53.12 ± 10.90^d; (MB453, TP4 15.0 μg/mL, 6 h) 27.09 ± 2.54^d; (MB453, TP4 15.0 μg/mL, 12 h) 27.32 ± 5.51^d; (MB453, TP4 15.0 μg/mL, 24 h) 58.93 ± 2.80^d; (MB453, TP4 20.0 μg/mL, 3 h) 36.33 ± 5067^d; (MB453, TP4 20.0 μg/mL, 6 h) 18.25 ± 1.80^d. Besides, the “Cellular toxicity” value by setting is: (MB453, TP4 20.0 μg/mL, 12 h) 15.02 ± 4.28^d; (MB453, TP4 20.0 μg/mL, 24 h) 40.15 ± 2.66^d.
